Results on 24 molecules are retold here after patent publication US10519177B2, “Heterocyclic compounds and uses thereof” (Plexxikon Inc., priority 2013, dated 2019).

For assay [1], the system named is MV-4-11 cells. The assay is described as follows: Oncology cell growth assay MV-4-11 (CellTiter Glo). It is filed as cell-based. To be noted: Homo sapiens, MV4-11, 72 h, read-out: Cell activity (IC50 μM) MV-4-11 3d-Growth. The essentials: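 MV-4-11 AML cells (MLL-AF4), 3000 per well, exposed to 8-point 1:3 compound titration from 10 μM top concentration (0.2% DMSO) for 72 h. Viability by CellTiter Glo luminescence, normalized to DMSO controls; pIC50 from four-parameter curve fit.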

The target of assay [2] is BRD4-BD12 (1-477) (Homo sapiens (Human), UniProt O60885). Description: Alphascreen binding assay BRD4-BD12. To be noted: BRD4(1 2) H4; read-out: Biochemical activity (IC50 μM) BRD4(1 2) H4. A digest of the protocol:
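First, compound was preincubated 1 h at room temperature with the His-tagged BRD4 protein (BD1 44-164 or tandem BD12 1-477) and acetylated H4 peptide. Next, donor and acceptor beads were added at 7.5 μg/ml final. After 30 min, AlphaScreen emission was recorded.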

The test system of assay [3] is bromodomain. The assay is described as follows: at least one of the bromodomain cell assays of Example 57. It is filed as cell-based. To be noted: at least one of the bromodomain cell assays described in Example 57; read-out: IC50 in at least one of the bromodomain cell assays.

Structures are written as SMILES. Read-outs that look alike come from different tables or passages of the source.

As for `Cc1noc(C)c1-c1cnc2c(-c3ccnc(C4CC4)c3)cn(CC3CCC(F)(F)CC3)c2c1` [P-0407, 4-[3-(2-cyclopropyl-4-pyridyl)-1-[(4,4-difluorocyclohexyl)methyl]pyrrolo[3,2-b]pyridin-6-yl]-3,5-dimethyl-isoxazole], the IC50 in assay [1] was < 1 µM; in assay [2], < 1 µM; in assay [3], < 10 µM.

For `Cc1noc(C)c1-c1cnc2c(-c3ccc(=O)n(C)c3)cn(CC3CCC(F)(F)CC3)c2c1` [P-0408, 5-[1-[(4,4-difluorocyclohexyl)methyl]-6-(3,5-dimethylisoxazol-4-yl)pyrrolo[3,2-b]pyridin-3-yl]-1-methyl-pyridin-2-one], the half-maximal inhibitory concentration (IC50) in assay [1] is < 1 µM; in assay [2], < 1 µM; in assay [3], < 10 µM.

As to `CCn1cc(-c2cn(CC3CCC(F)(F)CC3)c3cc(-c4c(C)noc4C)cnc23)cn1` [P-0409, 4-[1-[(4,4-difluorocyclohexyl)methyl]-3-(1-ethylpyrazol-4-yl)pyrrolo[3,2-b]pyridin-6-yl]-3,5-dimethyl-isoxazole], the IC50 was < 1 µM in assay [1], < 1 µM in assay [2] and < 10 µM in assay [3].

In the case of `Cc1noc(C)c1-c1cnc2c(-c3cn(C)nc3C(F)(F)F)cn(CC3CCC(F)(F)CC3)c2c1` [P-0410, 4-[1-[(4,4-difluorocyclohexyl)methyl]-3-[1-methyl-3-(trifluoromethyl)pyrazol-4-yl]pyrrolo[3,2-b]pyridin-6-yl]-3,5-dimethyl-isoxazole], the half-maximal inhibitory concentration (IC50) in assay [1] is < 1 µM; in assay [2] it was < 1 µM; in assay [3] it was < 10 µM.

Turning to `Cc1noc(C)c1-c1cnc2c(-c3cccc(CC(=O)O)c3)cn(CC3CCC(F)(F)CC3)c2c1` [P-0411, 2-[3-[1-[(4,4-difluorocyclohexyl)methyl]-6-(3,5-dimethylisoxazol-4-yl)pyrrolo[3,2-b]pyridin-3-yl]phenyl]acetic acid], the IC50 in assay [1] is < 1 µM; in assay [2], < 1 µM; in assay [3] it was < 10 µM.

As to `Cc1noc(C)c1-c1cnc2c(-c3ccc(C4(C(=O)O)CC4)cc3)cn(CC3CCC(F)(F)CC3)c2c1` [P-0412, 1-[4-[1-[(4,4-difluorocyclohexyl)methyl]-6-(3,5-dimethylisoxazol-4-yl)pyrrolo[3,2-b]pyridin-3-yl]phenyl]cyclopropanecarboxylic acid], the IC50 in assay [1] was < 1 µM; in assay [2] it was < 1 µM; in assay [3], < 10 µM.

For the molecule `Cc1noc(C)c1-c1cnc2c(-c3ccc(CC(=O)O)cc3)cn(CC3CCC(F)(F)CC3)c2c1` [P-0413, 2-[4-[1-[(4,4-difluorocyclohexyl)methyl]-6-(3,5-dimethylisoxazol-4-yl)pyrrolo[3,2-b]pyridin-3-yl]phenyl]acetic acid], the IC50 in assay [1] is < 1 µM; in assay [2] it was < 1 µM; in assay [3], < 10 µM.

For `Cc1noc(C)c1-c1cnc2c(-c3ccc(F)c(C(=O)O)c3)cn(CC3CCC(F)(F)CC3)c2c1` [P-0414, 5-[1-[(4,4-difluorocyclohexyl)methyl]-6-(3,5-dimethylisoxazol-4-yl)pyrrolo[3,2-b]pyridin-3-yl]-2-fluoro-benzoic acid], the IC50 in assay [1] is < 1 µM; in assay [2], < 1 µM; in assay [3] it was < 10 µM.

On to `Cc1ccc(-c2cn(CC3CCC(F)(F)CC3)c3cc(-c4c(C)noc4C)cnc23)cc1C(=O)O` [P-0415, 5-[1-[(4,4-difluorocyclohexyl)methyl]-6-(3,5-dimethylisoxazol-4-yl)pyrrolo[3,2-b]pyridin-3-yl]-2-methyl-benzoic acid], for which the 50% inhibitory concentration (IC50) is < 1 µM in assay [1], < 1 µM in assay [2] and < 10 µM in assay [3].

For `Cc1noc(C)c1-c1cnc2c(-c3ccc(C(=O)O)c(F)c3F)cn(CC3CCC(F)(F)CC3)c2c1` [P-0416, 4-[1-[(4,4-difluorocyclohexyl)methyl]-6-(3,5-dimethylisoxazol-4-yl)pyrrolo[3,2-b]pyridin-3-yl]-2,3-difluoro-benzoic acid], the results for the IC50 in assay [1], in assay [2] and in assay [3] were < 1 µM, < 1 µM and < 10 µM, respectively.

Regarding `Cc1noc(C)c1-c1cnc2c(-c3ccc(C(=O)O)cc3F)cn(CC3CCC(F)(F)CC3)c2c1` [P-0417, 4-[1-[(4,4-difluorocyclohexyl)methyl]-6-(3,5-dimethylisoxazol-4-yl)pyrrolo[3,2-b]pyridin-3-yl]-3-fluoro-benzoic acid], the IC50 in assay [1] was < 1 µM; in assay [2], < 1 µM; in assay [3] it was < 10 µM.

Regarding `COC(=O)c1ccc(-c2cn(CC3CCC(F)(F)CC3)c3cc(-c4c(C)noc4C)cnc23)cn1` [P-0418, methyl 5-[1-[(4,4-difluorocyclohexyl)methyl]-6-(3,5-dimethylisoxazol-4-yl)pyrrolo[3,2-b]pyridin-3-yl]pyridine-2-carboxylate], the IC50 was < 1 µM in assay [1], < 1 µM in assay [2] and < 10 µM in assay [3].

With `Cc1nnn(C)c1-c1cnc2c(-c3cnn(C(F)F)c3)cn(CC3(F)CCC(F)(F)CC3)c2c1` [P-0419, 3-[1-(difluoromethyl)pyrazol-4-yl]-6-(3,5-dimethyltriazol-4-yl)-1-[(1,4,4-trifluorocyclohexyl)methyl]pyrrolo[3,2-b]pyridine], the half-maximal inhibitory concentration (IC50) was < 1 µM in assay [1], < 1 µM in assay [2] and < 10 µM in assay [3].

In the case of `Cc1nnc(C)n1-c1cnc2c(-c3ccc(C(=O)O)cc3)cn(CC3CCC(F)(F)CC3)c2c1` [P-0420, 4-[1-[(4,4-difluorocyclohexyl)methyl]-6-(3,5-dimethyl-1,2,4-triazol-4-yl)pyrrolo[3,2-b]pyridin-3-yl]benzoic acid], the IC50 in assay [1] is 10 to 200 µM; in assay [2], < 1 µM; in assay [3] it was < 10 µM.

For `Cc1nnn(C)c1-c1cnc2c(-c3cnn(C)c3)cn(CC3(F)CCC(F)(F)CC3)c2c1` [P-0424, 6-(3,5-dimethyltriazol-4-yl)-3-(1-methylpyrazol-4-yl)-1-[(1,4,4-trifluorocyclohexyl)methyl]pyrrolo[3,2-b]pyridine], the IC50 was < 1 µM in assay [1], < 1 µM in assay [2] and < 10 µM in assay [3].

With `CCn1cc(-c2cn(CC3CCC(F)(F)CC3)c3cc(-c4c(C)nnn4C)cnc23)cn1` [P-0427, 1-[(4,4-difluorocyclohexyl)methyl]-6-(3,5-dimethyltriazol-4-yl)-3-(1-ethylpyrazol-4-yl)pyrrolo[3,2-b]pyridine], the IC50 was < 1 µM in assay [1] (MV-4-11, 3d growth); < 1 µM in assay [2]; < 10 µM in assay [3].

As to `Cc1noc(C)c1-c1cnc2c(c1)c(Cc1ccccc1Cl)cn2-c1ccc(C(=O)O)cn1` [P-0428, 6-[3-[(2-chlorophenyl)methyl]-5-(3,5-dimethylisoxazol-4-yl)pyrrolo[2,3-b]pyridin-1-yl]pyridine-3-carboxylic acid], the IC50 is 1 to 10 µM in assay [1] (MV-4-11, 3d growth); < 1 µM in assay [2]; < 10 µM in assay [3].

As to `CCOC(=O)c1ccc(-n2cc(CC3CCC(F)(F)CC3)c3cc(-c4c(C)noc4C)cnc32)nc1` [P-0429, ethyl 6-[3-[(4,4-difluorocyclohexyl)methyl]-5-(3,5-dimethylisoxazol-4-yl)pyrrolo[2,3-b]pyridin-1-yl]pyridine-3-carboxylate], the IC50 was 1 to 10 µM in assay [1] (MV-4-11, 3d growth); < 1 µM in assay [2]; < 10 µM in assay [3].

In the case of `Cc1noc(C)c1-c1cnc2c(c1)c(CC1CCC(F)(F)CC1)cn2-c1ccc(C(=O)O)cn1` [P-0430, 6-[3-[(4,4-difluorocyclohexyl)methyl]-5-(3,5-dimethylisoxazol-4-yl)pyrrolo[2,3-b]pyridin-1-yl]pyridine-3-carboxylic acid], the IC50 in assay [1] (MV-4-11, 3d growth) was < 1 µM; in assay [2], < 1 µM; in assay [3], < 10 µM.

Take `Cc1noc(C)c1-c1cnc2c(-c3ccc(C(=O)O)cc3)cn(Cc3ccccn3)c2c1` [P-0431, 4-[6-(3,5-dimethylisoxazol-4-yl)-1-(2-pyridylmethyl)pyrrolo[3,2-b]pyridin-3-yl]benzoic acid]: the IC50 was < 1 µM in assay [1] (MV-4-11, 3d growth); < 1 µM in assay [2]; < 10 µM in assay [3].

`Cc1noc(C)c1-c1cnc2c(-c3ccc(C(=O)O)cc3)cn(CC3CC(F)(F)C3)c2c1` [P-0432, 4-[1-[(3,3-difluorocyclobutyl)methyl]-6-(3,5-dimethylisoxazol-4-yl)pyrrolo[3,2-b]pyridin-3-yl]benzoic acid]: the IC50 in assay [1] (MV-4-11, 3d growth) was < 1 µM; in assay [2], < 1 µM; in assay [3] it was < 10 µM.

Take `Cc1noc(C)c1-c1cnc2c(-c3ccc(C(C)(C)C(=O)O)cc3)cn(CC3CCC(F)(F)CC3)c2c1` [P-0433, 2-[4-[1-[(4,4-difluorocyclohexyl)methyl]-6-(3,5-dimethylisoxazol-4-yl)pyrrolo[3,2-b]pyridin-3-yl]phenyl]-2-methyl-propanoic acid]: the IC50 is < 1 µM in assay [1] (MV-4-11, 3d growth); < 1 µM in assay [2]; < 10 µM in assay [3].

With `Cc1noc(C)c1-c1cnc2c(-c3ccc(C#N)cc3)cn(CC3CCC(F)(F)CC3)c2c1` [P-0434, 4-[1-[(4,4-difluorocyclohexyl)methyl]-6-(3,5-dimethylisoxazol-4-yl)pyrrolo[3,2-b]pyridin-3-yl]benzonitrile], the IC50 is < 1 µM in assay [1] (MV-4-11, 3d growth); < 1 µM in assay [2]; < 10 µM in assay [3].

In the case of `COC(=O)c1ccc(-c2cn(Cc3ccccn3)c3cc(-c4c(C)noc4C)cnc23)cc1` [P-0435, methyl 4-[6-(3,5-dimethylisoxazol-4-yl)-1-(2-pyridylmethyl)pyrrolo[3,2-b]pyridin-3-yl]benzoate], the IC50 in assay [1] (MV-4-11, 3d growth) was < 1 µM; in assay [2] it was < 1 µM; in assay [3], < 10 µM.
